Reference: PubChem BioAssay AID1259407 (Chemical Carcinogenesis Research Information System (CCRIS), 2018)
Activity calls are given as the source filed them. The rule behind the calls is not given here.

Test system: CCRIS mutagenicity, Ames/micronucleus/aberration tests
Assay: CCRIS mutagenicity studies

Measured: mutagenic call

O=c1[nH]c(=O)n([C@H]2C[C@H](O)[C@@H](CO)O2)cc1/C=C/Br
inactive: Test System: AMES SALMONELLA TYPHIMURIUM, Strain/Indicator: TA97, Metabolic Activation: NONE, Method: PREINCUBATION inactive; negative | Test System: AMES SALMONELLA TYPHIMURIUM, Strain/Indicator: TA97, Metabolic Activation: RAT, LIVER, S-9, AROCLOR 1254, Method: PREINCUBATION inactive; negative | Test System: AMES SALMONELLA TYPHIMURIUM, Strain/Indicator: TA98, Metabolic Activation: NONE, Method: PREINCUBATION inactive; negative | Test System: AMES SALMONELLA TYPHIMURIUM, Strain/Indicator: TA98, Metabolic Activation: NONE, Method: STANDARD PLATE inactive; negative | Test System: AMES SALMONELLA TYPHIMURIUM, Strain/Indicator: TA98, Metabolic Activation: RAT, LIVER, S-9, AROCLOR 1254, Method: PREINCUBATION inactive; negative | Test System: AMES SALMONELLA TYPHIMURIUM, Strain/Indicator: TA98, Metabolic Activation: RAT, LIVER, S-9, AROCLOR 1254, Method: STANDARD PLATE inactive; negative | Test System: AMES SALMONELLA TYPHIMURIUM, Strain/Indicator: TA100, Metabolic Activation: NONE, Method: PREINCUBATION inactive; negative | Test System: AMES SALMONELLA TYPHIMURIUM, Strain/Indicator: TA100, Metabolic Activation: NONE, Method: STANDARD PLATE inactive; negative | Test System: AMES SALMONELLA TYPHIMURIUM, Strain/Indicator: TA100, Metabolic Activation: RAT, LIVER, S-9, AROCLOR 1254, Method: PREINCUBATION inactive; negative | Test System: AMES SALMONELLA TYPHIMURIUM, Strain/Indicator: TA100, Metabolic Activation: RAT, LIVER, S-9, AROCLOR 1254, Method: STANDARD PLATE inactive; negative | Test System: AMES SALMONELLA TYPHIMURIUM, Strain/Indicator: TA102, Metabolic Activation: NONE, Method: PREINCUBATION inactive; negative | Test System: AMES SALMONELLA TYPHIMURIUM, Strain/Indicator: TA102, Metabolic Activation: RAT, LIVER, S-9, AROCLOR 1254, Method: PREINCUBATION inactive; negative | Test System: AMES SALMONELLA TYPHIMURIUM, Strain/Indicator: TA104, Metabolic Activation: NONE, Method: PREINCUBATION inactive; negative | Test System: AMES SALMONELLA TYPHIMURIUM, Strain/Indicator: TA104, Metabolic Activation: RAT, LIVER, S-9, AROCLOR 1254, Method: PREINCUBATION inactive; negative | Test System: AMES SALMONELLA TYPHIMURIUM, Strain/Indicator: TA1535, Metabolic Activation: NONE, Method: PREINCUBATION inactive; negative | Test System: AMES SALMONELLA TYPHIMURIUM, Strain/Indicator: TA1535, Metabolic Activation: NONE, Method: STANDARD PLATE inactive; negative | Test System: AMES SALMONELLA TYPHIMURIUM, Strain/Indicator: TA1535, Metabolic Activation: RAT, LIVER, S-9, AROCLOR 1254, Method: PREINCUBATION inactive; negative | Test System: AMES SALMONELLA TYPHIMURIUM, Strain/Indicator: TA1535, Metabolic Activation: RAT, LIVER, S-9, AROCLOR 1254, Method: STANDARD PLATE inactive; negative | Test System: AMES SALMONELLA TYPHIMURIUM, Strain/Indicator: TA1537, Metabolic Activation: NONE, Method: PREINCUBATION inactive; negative | Test System: AMES SALMONELLA TYPHIMURIUM, Strain/Indicator: TA1537, Metabolic Activation: NONE, Method: STANDARD PLATE inactive; negative | Test System: AMES SALMONELLA TYPHIMURIUM, Strain/Indicator: TA1537, Metabolic Activation: RAT, LIVER, S-9, AROCLOR 1254, Method: PREINCUBATION inactive; negative | Test System: AMES SALMONELLA TYPHIMURIUM, Strain/Indicator: TA1537, Metabolic Activation: RAT, LIVER, S-9, AROCLOR 1254, Method: STANDARD PLATE inactive; negative | Test System: AMES SALMONELLA TYPHIMURIUM, Strain/Indicator: TA1538, Metabolic Activation: NONE, Method: PREINCUBATION inactive; negative | Test System: AMES SALMONELLA TYPHIMURIUM, Strain/Indicator: TA1538, Metabolic Activation: NONE, Method: STANDARD PLATE inactive; negative | Test System: AMES SALMONELLA TYPHIMURIUM, Strain/Indicator: TA1538, Metabolic Activation: RAT, LIVER, S-9, AROCLOR 1254, Method: PREINCUBATION inactive; negative | Test System: AMES SALMONELLA TYPHIMURIUM, Strain/Indicator: TA1538, Metabolic Activation: RAT, LIVER, S-9, AROCLOR 1254, Method: STANDARD PLATE inactive; negative | Test System: CHINESE HAMSTER OVARY, Strain/Indicator: CHO-K1-BH4 (HGPRT), Metabolic Activation: NONE inactive; negative | Test System: CHINESE HAMSTER V-79, Strain/Indicator: V-79/8-AZAGUANINE, Metabolic Activation: NONE inactive; negative | Test System: MOUSE LYMPHOMA, Strain/Indicator: L5178Y (TK+/TK-), Metabolic Activation: RAT, LIVER, S-9, AROCLOR 1254, Method: SUSPENSION/PLATE inactive; negative | Test System: UDS RAT PRIMARY HEPATOCYTES, Strain/Indicator: THY INCORP (NON-S-PHASE), Metabolic Activation: NONE inactive; negative | Test System: UDS RODENT HEPATOCYTES, Strain/Indicator: THY INCORP, Metabolic Activation: NONE inactive; negative
active: Test System: MOUSE LYMPHOMA, Strain/Indicator: L5178Y (TK+/TK-), Metabolic Activation: NONE, Method: SUSPENSION/PLATE active; positive
